Blank lines part the entries; values can stand above or below the compound they belong to.
Assays:
[1] = tested on: antibody in the antiserum of rabbit immunized by the CPZ-BSA immunogen; test: Radioimmunoassay specificity: inhibition of 3H-CPZ binding to antibody; conditions: for concentration required to produce a 50% inhibition of 3H-chlorpromazine-antibody binding, relative to chlorpromazine: multiple of the CPZ concentration; for binding by the antibody (in words): competition with labeled CPZ
Description: The antiserum of EXAMPLE 2 as used for the radioimmunoassay was diluted with normal rabbit serum which was diluted with phosphate-buffered saline, pH 7.4, at 1:10 dilution. To determine the antibody titre of antiserum, 0.1 ml. of various dilutions of the antiserum was incubated in an assay tube (10 × 75 mm) with 320 pg of ^3 H-CPZ approximately 7,000 dpm, at 4°C. overnight. The volume was adjusted to 0.5 ml. with phosphate-buffered salie, pH 7.4 which is the optimal pH for the assay. The antibody bound CPZ was separated from free CPZ by the addition of saturated ammonium sulfate which was adjusted to pH 7.4 with ammonium hydroxide as described by Farr, J. Infect. Dis. 103, 239 (1958). After two washings with 50% saturated ammonium sulfate, the precipitate was dissolved in 0.5 ml. of water. The content of the tube was transferred to a counting vial and the tube was then washed four times with 3 ml. of Riaflour. The 12 ml. washings were all collected in the vial. The radioactivity was then counted with a Beckman liquid scintillation counter. Thedilution of the antiserum chosen for further studies were 1:7,000.
Appropriate volume of phosphate-buffered saline, pH 7.4 was added to all the tubes containing 0.1 ml. of the antiserum to make a final incubation volume of 0.5 ml. To the tubes were added various quantities ranging from 100 ng. to 10 pg. (10 1) of CPZ, its derivatives, serotonin and dopamine. After a 15 minute preincubation, 10 l. of ^3 H-CPZ was added. The tubes were then incubated overnight at 4°C. followed by precipitation with ammonium sulfate.
Background and non-specific protein binding of ^3 H-CPZ were determined by excluding the antiserum from the incubation mixture. The counts representing the non-specific binding were then subtracted from all samples.
The specificity of the antibody in the antiserum of rabbit immunized by the CPZ-BSA immunogen was determined by incubating the antiserum with a number of CPz derivatives or the biologenic amines in the presence of labeled CPZ. […] CPZ substituted at C6, C7, or C8 with hydroxy group was not bound by the antibody to the same extent as CPZ. In order to obtain a 50% inhibition of ^3 H-CPZ-antibody complex formation, these hydroxylated derivatives of CPZ required concentrations which were 5-10 times that of CPZ. […] The 7hydroxy derivatives of Nor1 -CPZ or Nor2 CPZ likewise were poorly bound by the antibody. Another metabolic product which can be formed from CPZ is CPZ-N-oxide. […] Promazine, the dechlorinated derivative required about 8 times the concentration of CPZ to produce a 50% displacement of the labeled CPZ from the antibody.

[2] = Disposition of CPZ in rats: plasma level by radioimmunoassay; type: in vivo, Male Sprague-Dawley rats; conditions: iv, rat, 10 mg/kg CPZ hydrochloride intravenously, after initial rapid decline
Description: To determine the plasma concentration of CPZ, aliquots of plasma from animals which received CPZ were diluted with normal rat plasma. To the assay tubes containing antiserum, phosphate-buffered saline, pH 7.4, ^3 H-CPZ and 10 l of unknown samples were added, and incubated at 4°C. overnight. Free CPZ was separated from the antibody bound CPZ by ammonium sulfate precipitation.
Male Sprague-Dawley rats weighing 210-240 g. were injected intravenously with 10 mg/kg of CPZ hydrochloride. In one group of 6 rats, 0.1 ml. of blood samples were taken from the tail into a heparinized capillary tube at varying time intervals following the injection. The plasma was separated by centrifugation and frozen until assayed. Other 48 rats were killed by decapitation at the same intervals as above, and the brain was removed, frozen on dry ice and then kept in a deep freezer at -80°C. until assayed.
The radioimmunoassay procedure of Example 3 was applied to the determination of CPZ and some minor metabolites in rat plasma and brain following intravenous administration of CPZ hydrochloride.

[3] = Disposition of CPZ in rats: brain level by radioimmunoassay; type: in vivo, Male Sprague-Dawley rats; conditions: rat
Description: The extraction of CPZ from the brain homogenate was necessary as the compound bound to the tissue. The brain was homogenized with 4 volumes of 0.05 N HCl. To a 0.1 ml. aliquot of the brain homogenate, 0.05 ml. of 0.5 N NaOH and 1.5 ml. of petroleum ether containing 10% isopropyl alcohol were added. The tube was vortexed twice for 20 seconds and then centrifuged at 3000 r.p.m. at 8°C. for 10 minutes. The tube was dipped in a dry ice-acetone bath and the aqueous layer was frozen. The upper organic layer was then transferred to another tube and evaporated to dryness under vacuum. The residue was dissolved in an appropriate volume of 25% isopropyl alcohol. To the assay tube containing antiserum, phosphate-buffered saline, pH 7.4 and ^3 H-CPZ, 10 μl of unknown sample was added.

binding by the antibody (in words) [1]: not bound significantly
Structure (SMILES): CNCCCN1c2ccccc2Sc2ccc(Cl)cc21 [nor1 -chlorpromazine]
binding by the antibody (in words) ([1]; listed as Nor1 -CPZ): bound by the antibody to a much lesser extent

binding by the antibody (in words) [1]: not bound significantly
Structure (SMILES): NCCCN1c2ccccc2Sc2ccc(Cl)cc21 [nor2 -chlorpromazine]
binding by the antibody (in words) ([1]; listed as Nor2 -CPZ): failed to recognize the compound unless the concentrations were extremely high

concentration required to produce a 50% inhibition of 3H-chlorpromazine-antibody binding, relative to chlorpromazine [1]: 5-10 times | concentration required to produce a 50% inhibition of 3H-chlorpromazine-antibody binding, relative to chlorpromazine ([1]; listed as Promazine): about 8 times
Structure (SMILES): CN(C)CCCN1c2ccccc2Sc2ccccc21 [promazine]

The next lines start with the compound.

Structure (SMILES): CN(C)CCCN1c2ccc(O)cc2Sc2ccc(Cl)cc21 [7-hydroxychlorpromazine]
concentration required to produce a 50% inhibition of 3H-chlorpromazine-antibody binding, relative to chlorpromazine [1]: 5-10 times

Structure (SMILES): CN(C)CCCN1c2cc(O)ccc2Sc2ccc(Cl)cc21 [8-hydroxychlorpromazine]
concentration required to produce a 50% inhibition of 3H-chlorpromazine-antibody binding, relative to chlorpromazine [1]: 5-10 times

Structure (SMILES): CN(C)CCCN1c2ccccc2Sc2ccc(Cl)cc21 [CPZ, Chlorpromazine]
half-life [2]: ~4 h | concentration producing a 50% inhibition of binding of 3H-CPZ to the antibody ([1]; 320 pg 3H-CPZ, antiserum 1:7,000, 0.5 ml, pH 7.4, 4°C overnight): 118 pg | time to peak brain level of CPZ and metabolites ([3]; 10 mg/kg CPZ hydrochloride intravenously): Five | persistence of peak brain level ([3]; in vivo, iv, 10 mg/kg): 30 min

Structure (SMILES): C[N+](C)([O-])CCCN1c2ccccc2Sc2ccc(Cl)cc21 [CPZ-N-oxide]
binding by the antibody (in words) [1]: not bound to the antibody to any appreciable extent

Structure (SMILES): CN(C)CCCN1c2ccccc2[S+]([O-])c2ccc(Cl)cc21 (stereo not drawn) [chlorpromazine sulfoxide]
binding by the antibody (in words) [1]: not bound significantly | binding by the antibody (in words) ([1]; listed as CPZ-sulfoxide): not recognized by the antibody unless the concentrations were high
